From the supplement of paper PMC10307832 come the findings set out here.

Test in all cases: relative viability (nuclei count vs DMSO), 5 days (fraction); higher = more cells survive
Compound in assay [1]: C1COCCN1CC2=CC(=O)C(=CO2)OCCCCCSC3=C4C=CC(=CC4=NC=C3)C(F)(F)F [EHT 1864] + CC1(C)CCC(c2ccc(Cl)cc2)=C(CN2CCN(c3ccc(C(=O)NS(=O)(=O)c4ccc(N[C@H](CCN5CCOCC5)CSc5ccccc5)c(S(=O)(=O)C(F)(F)F)c4)cc3)CC2)C1 [Navitoclax] (partner 0.5 µM)
The essentials: (§1)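 For relative viability, nuclei counts in treated wells were divided by those in vehicle wells. Lung cancer cell lines had been pin-tool dosed in 1536-well plates the day after seeding and cultured for 5 days, then fixed and stained in one step (final 0.05% Triton X-100, 1% formaldehyde, 1 ug/ml Hoechst) and imaged at 4×. Doses were one drug alone or a fixed anchor-drug dose plus five library-drug doses (not always all listed) in √10 steps, and values are duplicate-plate medians.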

Compound in assay [2]: C1COCCN1CC2=CC(=O)C(=CO2)OCCCCCSC3=C4C=CC(=CC4=NC=C3)C(F)(F)F [EHT 1864] + C[C@@H](Oc1cc(-c2cnn(C3CCNCC3)c2)cnc1N)c1c(Cl)ccc(F)c1Cl [Crizotinib] (partner 1 µM)
Put shortly:
as §1

Compound in assay [3]: C1COCCN1CC2=CC(=O)C(=CO2)OCCCCCSC3=C4C=CC(=CC4=NC=C3)C(F)(F)F [EHT 1864] + Cc1nc(Nc2ncc(C(=O)Nc3c(C)cccc3Cl)s2)cc(N2CCN(CCO)CC2)n1 [Dasatinib] (partner 0.075 µM)
The essentials:
as §1

Compound in assay [4]: C1COCCN1CC2=CC(=O)C(=CO2)OCCCCCSC3=C4C=CC(=CC4=NC=C3)C(F)(F)F [EHT 1864] + O=C(CCCCCCC(=O)Nc1ccccc1)NO [Vorinostat] (partner 1 µM)
The essentials: as §1

COR-L 105: the relative viability is 0.883 in assay [1] (first compound 0.04 µM); 0.783 in assay [1] (first compound 0.1265 µM); 0.801 in assay [1] (first compound 0.4 µM); 0.707 in assay [1] (first compound 1.265 µM); 0.723 in assay [1] (first compound 4 µM); 0.614 in assay [2] (first compound 0.04 µM). The relative viability came out at 0.732 in assay [2] (first compound 0.1265 µM); 1.05 in assay [2] (first compound 0.4 µM); 0.774 in assay [2] (first compound 1.265 µM); 0.74 in assay [2] (first compound 4 µM); 0.415 in assay [3] (first compound 0.04 µM); 0.314 in assay [3] (first compound 0.1265 µM). The relative viability in assay [3] (first compound 0.4 µM) was 0.34; in assay [3] (first compound 1.265 µM) it was 0.334; in assay [3] (first compound 4 µM), 0.396; in assay [4] (first compound 0.04 µM), 0.99; in assay [4] (first compound 0.1265 µM), 0.699; in assay [4] (first compound 0.4 µM) it was 0.949. The relative viability in assay [4] (first compound 1.265 µM) came out at 0.847; in assay [4] (first compound 4 µM) it was 0.778.

Regarding NCI-H1734, the relative viability amounted to 0.916 in assay [1] (first compound 0.04 µM); 0.828 in assay [1] (first compound 0.1265 µM); 0.849 in assay [1] (first compound 0.4 µM); 0.867 in assay [1] (first compound 1.265 µM); 0.747 in assay [1] (first compound 4 µM); 0.67 in assay [2] (first compound 0.04 µM). Further, the relative viability in assay [2] (first compound 0.1265 µM) worked out at 0.626; in assay [2] (first compound 0.4 µM), 0.632; in assay [2] (first compound 1.265 µM), 0.723; in assay [2] (first compound 4 µM), 0.721; in assay [3] (first compound 0.04 µM) it was 0.497; in assay [3] (first compound 0.4 µM), 0.523. Further, the relative viability in assay [3] (first compound 1.265 µM) came to 0.528; in assay [3] (first compound 4 µM), 0.502; in assay [4] (first compound 0.04 µM) it was 0.94; in assay [4] (first compound 0.1265 µM), 0.532; in assay [4] (first compound 0.4 µM), 0.818; in assay [4] (first compound 1.265 µM), 0.751. The relative viability in assay [4] (first compound 4 µM) turned out to be 0.837.

As for NCI-H3122, the relative viability in assay [1] (first compound 0.04 µM) is 1.06; in assay [1] (first compound 0.1265 µM) it was 1.01; in assay [1] (first compound 0.4 µM) it was 0.987; in assay [1] (first compound 1.265 µM) it was 1.06; in assay [1] (first compound 4 µM), 0.987; in assay [2] (first compound 0.04 µM), 0.327. For the same cell line, the relative viability in assay [2] (first compound 0.1265 µM) was 0.278; in assay [2] (first compound 0.4 µM), 0.276; in assay [2] (first compound 1.265 µM), 0.315; in assay [2] (first compound 4 µM) it was 0.245; in assay [3] (first compound 0.04 µM), 0.809; in assay [3] (first compound 0.1265 µM), 0.285. For the same cell line, the relative viability in assay [3] (first compound 0.4 µM) worked out at 0.667; in assay [3] (first compound 1.265 µM), 0.817; in assay [3] (first compound 4 µM) it was 0.885; in assay [4] (first compound 0.04 µM), 0.934; in assay [4] (first compound 0.1265 µM), 0.76; in assay [4] (first compound 0.4 µM) it was 0.899. Also, the relative viability in assay [4] (first compound 1.265 µM) was determined as 1.12; in assay [4] (first compound 4 µM), 0.992.

On to CAL-12T, for which the relative viability in assay [1] (first compound 0.04 µM) stood at 1.03; in assay [1] (first compound 0.1265 µM), 1.07; in assay [1] (first compound 0.4 µM), 1.04; in assay [1] (first compound 1.265 µM), 1.19; in assay [1] (first compound 4 µM), 1.22; in assay [2] (first compound 0.04 µM) it was 0.722. Moreover, the relative viability in assay [2] (first compound 0.1265 µM) stood at 0.635; in assay [2] (first compound 0.4 µM), 0.663; in assay [2] (first compound 1.265 µM), 0.653; in assay [2] (first compound 4 µM), 0.831; in assay [3] (first compound 0.04 µM), 0.54; in assay [3] (first compound 0.1265 µM) it was 0.38. The relative viability was 0.409 in assay [3] (first compound 0.4 µM); 0.353 in assay [3] (first compound 1.265 µM); 0.483 in assay [3] (first compound 4 µM); 0.671 in assay [4] (first compound 0.04 µM); 0.553 in assay [4] (first compound 0.1265 µM); 0.644 in assay [4] (first compound 0.4 µM). Besides, the relative viability in assay [4] (first compound 1.265 µM) was 0.775; in assay [4] (first compound 4 µM), 0.812.

For HCC-78, the relative viability in assay [1] (first compound 0.04 µM) was 0.618; in assay [1] (first compound 0.1265 µM), 0.746; in assay [1] (first compound 0.4 µM), 0.693; in assay [1] (first compound 1.265 µM), 0.685; in assay [1] (first compound 4 µM) it was 1.1; in assay [2] (first compound 0.04 µM) it was 0.349. In addition, the relative viability came to 0.32 in assay [2] (first compound 0.1265 µM); 0.353 in assay [2] (first compound 0.4 µM); 0.342 in assay [2] (first compound 1.265 µM); 0.319 in assay [2] (first compound 4 µM); 0.365 in assay [3] (first compound 0.04 µM); 0.367 in assay [3] (first compound 0.1265 µM). The relative viability was 0.357 in assay [3] (first compound 0.4 µM); 0.338 in assay [3] (first compound 1.265 µM); 0.337 in assay [3] (first compound 4 µM); 0.377 in assay [4] (first compound 0.04 µM); 0.429 in assay [4] (first compound 0.1265 µM); 0.421 in assay [4] (first compound 0.4 µM). Also, the results for the relative viability in assay [4] (first compound 1.265 µM) and in assay [4] (first compound 4 µM) were 0.429 and 0.467, respectively.

Turning to NCI-H2085, the relative viability in assay [1] (first compound 0.04 µM) came out at 1.03; in assay [1] (first compound 0.1265 µM), 1.11; in assay [1] (first compound 0.4 µM), 1.08; in assay [1] (first compound 1.265 µM), 1.13; in assay [1] (first compound 4 µM), 1.14; in assay [2] (first compound 0.04 µM), 0.71. In addition, the relative viability in assay [2] (first compound 0.1265 µM) worked out at 0.764; in assay [2] (first compound 0.4 µM), 0.846; in assay [2] (first compound 1.265 µM), 0.762; in assay [2] (first compound 4 µM), 0.778; in assay [3] (first compound 0.04 µM), 0.22; in assay [3] (first compound 0.1265 µM), 0.239. The relative viability in assay [3] (first compound 0.4 µM) is 0.233; in assay [3] (first compound 1.265 µM), 0.253; in assay [3] (first compound 4 µM) it was 0.305; in assay [4] (first compound 0.04 µM) it was 0.789; in assay [4] (first compound 0.1265 µM), 0.577; in assay [4] (first compound 0.4 µM), 0.838. Further, the figures for the relative viability in assay [4] (first compound 1.265 µM) and in assay [4] (first compound 4 µM) were 0.774 and 0.804, respectively.
